{"source": "patent US20230105103A1", "about": "“THERAPEUTIC MOLECULES FOR COMBATING SEPSIS” (CENTRE FOR CELLULAR AND MOLECULAR PLATFORMS, priority 2019, published 2023)", "key": {"[1]": {"tested_on": "mice in endotoxemia model", "settings": "Panda et al., 2012; cited from earlier work"}, "TLR3": {"target": "TLR3 (Homo sapiens, UniProt O15455)", "settings": "P1 fraction, HEK293 reporter cells, FIG. 7", "text": "(§1) P1 fraction tested on reporter cell lines where TLR2, TLR4 or TLR3 is expressed in HEK293 cells and activation of the receptors is observed by NP-kB and AP-1 promoter driven SEAP enzyme secretion.\n(§2) HEK-Blue TLR2, HEK-Blue TLR3 and HEK-Blue TLR4 reporter cells expressing SEAP (secreted embryonic alkaline phosphatase) enzyme under NF-kb and AP-1 promoter (Cat. no.# hkb-htlr2, hkb-htlr3 and hkb-htlr4) were purchased from InvivoGen (USA). Human Peripheral blood mononuclear cells (PBMCs) (Cat. no.# CL003-25) were purchased from Himedia laboratories (India). HEK based cells and PBMCs were cultured DMEM and RPMI media, respectively. The cells were maintained at 37° C. incubator with 5% CO2. The culture media was supplemented with 10% Fetal Calf Serum (Gibco) along with standard antibiotics. HEK-Blue selection antibiotics (InvivoGen, Cat. no.# hb-sel, ant-zn and ant-bl) were added as per manufacturers' instructions.\n(§3) 2×10^4 HEK-Blue reporter cells were seeded, in each well of a 96 well plate, in HEK-Blue detection media (InvivoGen, Cat. no.# hb-det3) along with the 50 μg/ml of the chito-oligomers. […] The treated cells were incubated at about 37° C. for about 16 hours and absorbance (O.D.) was measured at 620 nm in either TECAN Infinite® 200 PRO or Thermo Scientific Varioskan LUX multimode reader."}, "TLR4": {"target": "T1, TLR4 (Homo sapiens, UniProt O00206)", "T1 construct": "host or cells: HEK293 (HEK-Blue TLR4 reporter cells)", "T1 sequence (O00206 24-839)": "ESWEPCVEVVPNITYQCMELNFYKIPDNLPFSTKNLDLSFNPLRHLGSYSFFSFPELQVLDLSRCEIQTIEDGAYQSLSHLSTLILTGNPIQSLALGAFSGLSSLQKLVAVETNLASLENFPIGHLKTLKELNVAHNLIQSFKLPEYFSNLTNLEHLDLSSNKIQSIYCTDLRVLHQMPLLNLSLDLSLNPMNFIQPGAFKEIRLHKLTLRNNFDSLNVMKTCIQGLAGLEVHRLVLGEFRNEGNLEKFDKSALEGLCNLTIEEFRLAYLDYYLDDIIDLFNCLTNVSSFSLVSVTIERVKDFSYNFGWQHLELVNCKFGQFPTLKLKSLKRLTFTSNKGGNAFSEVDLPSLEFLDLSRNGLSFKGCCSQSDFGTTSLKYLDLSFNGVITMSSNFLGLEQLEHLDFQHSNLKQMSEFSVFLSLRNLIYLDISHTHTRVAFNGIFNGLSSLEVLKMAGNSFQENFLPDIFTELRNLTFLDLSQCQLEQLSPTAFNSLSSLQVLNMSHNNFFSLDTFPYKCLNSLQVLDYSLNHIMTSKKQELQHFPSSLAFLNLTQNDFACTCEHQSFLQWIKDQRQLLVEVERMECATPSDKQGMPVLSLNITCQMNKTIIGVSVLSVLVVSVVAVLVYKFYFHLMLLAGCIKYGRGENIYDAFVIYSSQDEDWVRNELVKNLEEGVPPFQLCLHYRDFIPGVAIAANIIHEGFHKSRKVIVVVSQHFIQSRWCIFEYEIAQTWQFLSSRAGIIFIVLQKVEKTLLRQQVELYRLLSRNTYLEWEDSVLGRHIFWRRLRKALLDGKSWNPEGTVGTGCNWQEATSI", "T1 sequence (Q9Y6Y9 17-160 partner limits assumed)": "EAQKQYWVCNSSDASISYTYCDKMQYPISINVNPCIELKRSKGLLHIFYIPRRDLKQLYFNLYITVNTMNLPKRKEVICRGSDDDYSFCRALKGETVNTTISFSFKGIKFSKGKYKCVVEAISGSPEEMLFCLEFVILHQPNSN", "test": "HEK-Blue TLR4 reporter assay (NF-kb and AP-1 driven SEAP)", "type": "cell-based", "settings": "P1 fraction, HEK293 reporter cells, FIG. 7", "text": "as §1, §2, §3"}, "[2]": {"tested_on": "septic mice in the CLP model (polymicrobial sepsis)", "test": "Survival of septic mice in CLP model, native protein", "type": "in vivo", "procedure": "About 80% of mice that received 15-35 μg of protein and about 60% mice that received 1-20 μg of protein survived even up to 16 days. More preferably, 80% of mice that received 25 μg of protein and 60% mice that received 10 μg of protein survived even up to 16 days. All the mice in the control group had died in the same duration."}, "THP-1 cells": {"tested_on": "THP-1 cells", "test": "THP-1 cells treated with P1 and Pp, cytokine secretion", "type": "cell-based, human", "procedure": "THP-1 cells (human acute monocytic leukemia cell line) were procured from ATCC (Cat. No# ATCC® TIB-202™). The THP-1 cells were treated with the P1 and Pp to check for any pro-inflammatory activity."}, "[3]": {"tested_on": "septic mice in endotoxemia model", "test": "Survival in endotoxemia model (LPS injection), native protein", "type": "in vivo", "settings": "treated 6 hours post LPS injection, up to ten days, group G2", "procedure": "In this model, post LPS Injection (i.e., 6 hours) animals were treated with vehicle and test agents amongst different groups G1-G5 as specified in figure. G2 (LPS+DIA-1) was treated with the P1 protein while G3 and G4 were other test protein used as experimental controls."}, "TLR2 [4]": {"target": "T2, TLR2 (Homo sapiens, UniProt O60603)", "test": "HEK-Blue TLR2 reporter assay (NF-kb and AP-1 driven SEAP)", "type": "cell-based", "set-up": "host or cells: HEK293 (HEK-Blue TLR2 reporter cells)", "settings": "P1 fraction, HEK293 reporter cells, FIG. 7", "text": "as §1, §2, §3"}, "IL-18": {"tested_on": "IL-18", "settings": "monocytes, in vitro, FIG. 8", "text": "Increased levels of IL-18 have also been associated with higher mortality in sepsis. In endotoxemia mice models IL-18 knockout mice show better survival than the wild type indicating a role of IL18 in disease severity (Berghe T V, 2014 Eidt M V, 2016)."}, "TLR2 [5]": {"target": "T2, TLR2", "settings": "Das et al., 2019; cited from earlier work"}}, "note": "“Also recorded” adds a separate entry of the source.", "data": [{"compound": "chitohexaose [CHTX]", "values": [{"measurement": "protection of mice", "setting": "[1]", "value": "protect mice"}]}, {"compound": "P1: Major G75 size exclusion peak of AgW from Setaria digitata, a pure glycoprotein identified as Heat Shock Protein 70 (SEQ. ID NO. 1)", "values": [{"measurement": "activation of TLR3 (SEAP secretion)", "setting": "TLR3", "value": "no activation"}, {"measurement": "activation of TLR4 (SEAP secretion)", "setting": "TLR4", "value": "activates; also recorded: consistently activating"}, {"measurement": "mice survived up to 16 days", "setting": "[2]; 10 μg of protein", "value": 60, "unit": "%"}, {"measurement": "mice survived up to 16 days", "setting": "[2]; 25 μg of protein", "value": 80, "unit": "%"}, {"measurement": "mice survived up to 16 days", "setting": "[2]; 1-20 μg of protein", "value": "about 60%"}, {"measurement": "mice survived up to 16 days", "setting": "[2]; 15-35 μg of protein", "value": "About 80%"}, {"measurement": "alternate activation marker CLEC10A or CD301", "setting": "THP-1 cells; THP-1 cells", "value": "reduces"}, {"measurement": "secretion of pro-inflammatory cytokines", "setting": "THP-1 cells; THP-1 cells, FIG. 1B", "value": "highly active"}, {"measurement": "secretion of IL-1b", "setting": "THP-1 cells; THP-1 cells, FIG. 1C", "value": "promote secretion"}, {"measurement": "secretion of IL-6", "setting": "THP-1 cells; THP-1 cells, FIG. 1C", "value": "promote secretion"}, {"measurement": "secretion of IL-10", "setting": "THP-1 cells; THP-1 cells, FIG. 1C", "value": "promote secretion"}, {"measurement": "secretion of MCP-1", "setting": "THP-1 cells; THP-1 cells, FIG. 1C", "value": "promote secretion"}, {"measurement": "secretion of TNF-α", "setting": "THP-1 cells; THP-1 cells, FIG. 1C", "value": "promote secretion"}, {"measurement": "induction of cytokines", "setting": "THP-1 cells; THP-1 monocytic cells, FIG. 1C", "value": "activated the THP-1 monocytic cells"}, {"measurement": "survival", "setting": "[3]", "value": 66, "unit": "%"}, {"measurement": "activation of TLR2 (SEAP secretion)", "setting": "TLR2 [4]", "value": "activates; also recorded: consistently activating"}, {"measurement": "reduction in IL-18 transcript levels", "setting": "IL-18", "value": "more than 60%"}]}, {"compound": "CC(=O)N[C@H]1[C@H](OC2CCCCC2)O[C@H](CO)[C@@H](O[C@@H]2O[C@H](CO)[C@@H](O)[C@H](O)[C@H]2NC(C)=O)[C@@H]1O", "note": "[AVR-25]", "values": [{"measurement": "binding affinity to TLR2", "setting": "TLR2 [5]", "value": "did not show any binding affinity"}]}]}
